Reference: US20090202499A1, “Human Telomerase Reverse Transcriptase Peptides” (priority 2006, published 2009)
pIC50: −log10 of the molar value. Entries after “also recorded” stand apart in the source; their conditions may differ.

Legend:
B*0801 = B*0801 (Homo sapiens, UniProt P01889, A93T/A95T/D138N/E176V/E187T/K202T/Q94N/R180D/S35A/V36M/Y33D/Y91F); experiment: biochemical
[1] = tested on: HLA B7-supertype molecules (B*0702, B*3501, B*5101, B*5301, B*5401) and B*0801; experiment: HLA-B7 supertype binding, summary over the allele panel; design: species or system human; details: alleles B*3501, B*5101, B*5301, B*5401 and B*0801
Description: Supertype analysis. Quantitative assays to measure the binding affinity of peptides to purified HLA B7-supertype molecules (B*0702, B*3501, B*5101, B*5301, B*5401) and B*0801 were based on the inhibition of binding of a radiolabeled standard peptide, and were performed as previously described (22, 35). Briefly, 1-10 nM of radiolabeled peptide was co-incubated at room temperature with 1 microM to 1 nM of purified MHC in the presence of 1-3 μM human beta2-microglobulin (Scripps Laboratories, San Diego, Calif.) and a cocktail of protease inhibitors. After a two-day incubation, binding of the radiolabeled peptide to the corresponding MHC class I molecule was determined by capturing MHC/peptide complexes on Greiner Lumitrac 600 microplates (Greiner Bio-one, Longwood, Fla.) coated with the W6/32 antibody, and measuring bound counts per minute (cpm) using the TopCount microscintillation counter (Packard Instrument Co.). […] Under the conditions utilized, where [label]<[MHC] and IC50≧[MHC], the measured IC50 values are reasonable approximations of the true Kd values.
HLA molecules are highly polymorphic posing problems to the identification of peptides, which could be used to cover the totality of the human population. However, HLA alleles can be clustered into a relatively small number of groups termed supertypes (21). The HLA-B7 supertype includes ten alleles (22). Here, we decided to test the selected hTRT peptides for their ability to bind five out of ten members of the HLA-B7 supertype (B*3501, B*5101, B*5301, B*5401) and B*0801. The B*0801 allele shares binding features with B*0702, although is not officially part of the HLA-B7 supertype. This analysis had the purpose to further narrow the selection of putative HLA-B7 immunogens based on supertype binding (Table V).

HLA-B7 (HLA-B*0702) = HLA-B7 (HLA-B*0702) (Homo sapiens, UniProt P01889); experiment: MHC stabilization assay on T2-B7 cells (relative avidity); format: cell-based; details: summary of both binding assays of Table II
Description: MHC binding assays. Relative avidity measurements. The relative avidity of hTRT peptides for HLA B7 was measured using a MHC stabilization assay on T2-B7 cells in comparison with a reference peptide as described previously (14).
Next, we assessed the actual binding avidity for HLA-B7 (HLA-B*0702). Two independent assays were used: binding stabilization assay on T2-B7 cells by flow cytometry (12) and a competitive solid-phase radioimmunoassay on immobilized purified HLA-B7 molecule (35).

JY cells = experiment: lysis of hTRT positive JY cells by human CTL against p1123; format: cell-based; details: CTL from normal donors; no peptide pulsing
Description: Tests were run in duplicates at the indicated E:T ratios. CTL were used after 4 cycles of in vitro restimulation with homologous peptide. […].
In vitro immunization procedures. In experiments shown in Table III and FIG. 3, immunizations were performed in 96 well plates. Briefly, 2×10^5 irradiated (6000 rads) human PBMC were plated in 96 (flat) well-plate in 100 micro-liters of complete human medium (RPMI 1640 medium containing 10% heat inactivated human AB serum, 2 mM glutamine, 50 micro-grams/ml streptomycin and 50 micro-grams/ml penicillin) with 100 micro-grams/ml of peptide. 12 wells per peptide were plated per patient. Then 2×10^5 PBMC in 100 micro-liters of complete human medium were added into each well. Four days later 100 micro-liters of medium were replaced with 100 micro-liters of fresh complete human medium containing 80 IU/ml of IL-2. At day 6-7, 100 IU/ml of IL-2 were added and wells were split into two. On day 10-11 micro-cytotoxicity assay was performed. […]
(§1) CTL assays. Both murine and human CTL were detected by the ^51Cr release assay performed as previously described (14). […] The supernatants were harvested and counted on a Wallac 1470 Wizard Gamma counter. The percent lysis was calculated as 100 (cpmexp−cpmspont)/(cpmmax−cpmspont). […]

[2] = tested on: T2-B7 target cells pulsed with p1123; experiment: conventional in vitro immunization of human PBMC with p1123, 51Cr-release assay; format: cell-based
Description: FIG. 4. Characterization of human CTL generated by in vitro immunization. An example of one of two HLA-B7^+ normal donor PBMC from and a prostate cancer patient. Immunization in vitro was performed using a conventional method (12). […] CTL were tested after 5 cycles of in vitro restimulation with homologous peptide. (B) Surface phenotype analysis using anti-CD3 and anti-CD8 monoclonal antibodies of the CTL shown in panel A. The percentage of double positive cells is indicated. […] CTL were tested after 7 cycles of in vitro restimulation with homologous peptide. (D) Surface phenotype analysis using anti-CD3 and anti-CD8 monoclonal antibodies of the CTL from the same patient shown on panel C after 5 cycles of in vitro restimulation with homologous peptide. Experiments shown in A and B are representative of set of similar data from two normal donors examined at different times.
In vitro immunization procedures. In experiments shown in Table III and FIG. 3, immunizations were performed in 96 well plates. […]
as §1

[3] = tested on: human T2-B7 pulsed with p1123; experiment: murine CTL line specific for p1123, 51Cr-release assay; format: cell-based; details: mCTL from p1123-immunized HLA-B7 Tg mice

Compound	pIC50 (B*0801)	HLA-B7 supertype binding (in words) [1]	binding avidity for HLA-B7 (in words) (HLA-B7 (HLA-B*0702))	lysis of JY cells by CTL against p1123 (in words) (JY cells)	CTL induction and lysis of T2-B7 pulsed with p1123 (in words) ([2]; PBMC from HLA-B7+ normal blood donors, repeated in vitro restimulation)	efficiency of CTL induced (in words) ([2]; PBMC from a prostate cancer patient, compared with normal donors)	lytic activity of mCTL line for T2-B7 pulsed with peptide (in words) [3]
CC(C)C[C@H](NC(=O)[C@H](CC(C)C)NC(=O)[C@H](CCC(N)=O)NC(=O)[C@@H](NC(=O)[C@H](CC(C)C)NC(=O)[C@H](CCCNC(=N)N)NC(=O)[C@H](CCCNC(=N)N)NC(=O)[C@@H]1CCCN1C(=O)[C@@H](N)CC(=O)O)C(C)C)C(=O)O [p444]	6.66	little HLA-B7 supertype binding	poor and weak binding and poor binding	–	–	–	–
CC[C@H](C)[C@H](NC(=O)[C@@H](NC(=O)[C@H](CCCCN)NC(=O)[C@H](Cc1ccccc1)NC(=O)[C@H](CC(=O)O)NC(=O)[C@H](CO)NC(=O)[C@@H]1CCCN1C(=O)[C@@H](N)CC(C)C)[C@@H](C)O)C(=O)N[C@@H](CC(C)C)C(=O)O [p1123]	7.13	bound to various alleles of the HLA-B7 supertype; also recorded: measurable avidity for all alleles examined	–	also killed JY cells in the absence of any peptide pulsing	high efficiency CTL were induced	less efficient	high lytic activity
CC(C)C[C@H](NC(=O)[C@H](CO)NC(=O)[C@@H](NC(=O)[C@H](C)NC(=O)[C@H](CCC(=O)O)NC(=O)[C@H](CCC(=O)O)NC(=O)[C@H](C)NC(=O)[C@@H]1CCCN1C(=O)[C@@H](N)CCCNC(=N)N)[C@@H](C)O)C(=O)O [p277]	–	bound four alleles with intermediate avidity	high avidity binding; also recorded: high binding in vitro	–	–	–	–
CC(C)C[C@H](NC(=O)[C@H](C)NC(=O)[C@@H](NC(=O)[C@H](CC(C)C)NC(=O)[C@@H](NC(=O)[C@@H](NC(=O)CNC(=O)[C@@H]1CCCN1C(=O)[C@@H](N)CC(C)C)[C@@H](C)O)[C@@H](C)O)[C@@H](C)O)C(=O)O [p1107, LPGTTLTAL]	6.72	bound with high avidity three out of five alleles	high avidity binding; also recorded: high binding in vitro	–	–	–	–
CC(C)C[C@H](NC(=O)[C@H](CCCNC(=N)N)NC(=O)[C@H](CCCNC(=N)N)NC(=O)[C@H](CC(C)C)NC(=O)[C@H](CS)NC(=O)[C@H](C)NC(=O)[C@H](CCCNC(=N)N)NC(=O)[C@@H](NC(=O)[C@@H](N)Cc1ccccc1)C(C)C)C(=O)O [p464]	6.91	little HLA-B7 supertype binding	–	–	–	–	–
CC(C)C[C@H](NC(=O)[C@H](CO)NC(=O)[C@H](CO)NC(=O)[C@H](CC(C)C)NC(=O)[C@H](CC(C)C)NC(=O)[C@H](Cc1ccccc1)NC(=O)[C@H](CO)NC(=O)[C@@H]1CCCN1C(=O)[C@@H](N)CCCNC(=N)N)C(=O)O [p342]	7.43	–	–	–	–	–	–
